Data from PMC10714399, “Open Source Antibiotics: Simple Diarylimidazoles Are Potent against Methicillin-Resistant Staphylococcus aureus” (ACS Infectious Diseases, 2023).
Values after ≈ are worked out from the molar mass of the structure shown. Values joined by “and” are separate entries in the source; they are usually repeats but may differ in a detail not shown here. Equal entries are not always repeated. Where two headings read alike, the source gives them in different places. One block for each compound: values may come before it.

Legend:
[1] = test system: Staphylococcus aureus NCTC 13373 (mecA-positive; methicillin-resistant); assay: In vitro antibacterial activity, MIC (UCL School of Pharmacy assay), MRSA; type: cell-based; conditions: for MIC: Staphylococcus aureus
Method in brief: (§1)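 Broth microdilution in isosensitest broth; inoculum from overnight tryptone soya agar culture adjusted to A600 0.1 (~1 × 10^8 CFU/mL) then diluted 1:100. Compounds tested as 2-fold series, 32 to 0.03 μg/mL, DMSO at most 2%; vancomycin as quality control.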

[2] = Kinetic solubility estimation using nephelometry (Monash); type: physicochemical; conditions: for solubility kinetic at 30 min: kinetic from dmso stock
Description: Compound in DMSO was spiked into either pH 6.5 phosphate buffer or 0.01 M HCl (approximately pH 2.0) with the final DMSO concentration being 1%. […]
b) Kinetic Solubility Estimation using Nephelometry (SolpH)
Compound in DMSO was spiked into either pH 6.5 phosphate buffer or 0.01 M HCl (approx pH 2.0) with the final
DMSO concentration being 1%. After 30 minutes had elapsed, samples were then analysed via Nephelometry to
determine a solubility range. See Bevan and Lloyd (2000) Anal Chem, 72:1781-1787. […]
(§2) In Vitro Intrinsic Clearance […]
(§3) Experimental results are tabulated on the following page(s).
(§4) (1 picture or pasted object on this page, not shown here)

[3] = Distribution coefficient estimation using chromatography, gLogD (Monash); type: physicochemical
From the text: Partition coefficient values (LogD) of the test compounds were estimated at pH 7.4 by the correlation of their chromatographic retention properties against the characteristics of a series of standard compounds with known partition coefficient values. The method employed is a gradient HPLC-based derivation of the method developed by Lombardo.[42] […]
c) Distribution Coefficient Estimation using Chromatography (gLogDpH)
Partition coefficient values (LogD) of the test compounds were estimated at pH 7.4 by correlation of their
chromatographic retention properties against the characteristics of a series of standard compounds with known
partition coefficient values. […]
as §2, §3, §4

[4] = In vitro metabolic stability, human liver microsomes (Monash); type: in vitro ADME
Description: (§5) The metabolic stability assay was performed by incubating each test compound with a suspension of liver microsomes (0.4 mg/mL protein, 1 μM substrate, 37 °C). Microsomes were purchased from XenoTech. The metabolic reaction was initiated by the addition of an NADPH-regenerating system and quenched at various time points over a 60 min incubation by the addition of acetonitrile containing metolazone as an internal standard. Control samples (containing no NADPH) were included (quenched at 2, 30, and 60 min) to monitor for potential degradation in the absence of cofactor. […]
(§6) d) In Vitro Metabolic Stability
(§7) The metabolic stability assay was performed by incubating each test compound with a suspension of liver
(§8) microsomes (0.4 mg/mL, 37°C). The metabolic reaction was initiated by the addition of an NADPH-regenerating
(§9) system and quenched at various time points over a 60 minute incubation by the addition of acetonitrile containing
(§10) metolazone as internal standard. Control samples (containing no NADPH) were included (quenched at 2, 30 and 60
(§11) minutes) to monitor for potential degradation in the absence of cofactor.
(§12) The human liver microsomes used in this experiment were supplied by XenoTech, lot # 1710084.The rat liver
(§13) microsomes used in this experiment were supplied by XenoTech, lot # 1610290. Microsomal incubations were
(§14) performed at a substrate concentration of 1 µM.
(§15) Data analysis and interpretation:
(§16) Substrate depletion as a function of time was analysed as described by Obach (1999) Drug Metab. Dispos., 27:1350-
(§17) 1359. Intrinsic clearance (CLint) values were classified at the limits of low and high clearance bands based on a
(§18) rearrangement of the well stirred model of hepatic elimination. It should be noted that the potential impact of
(§19) compound binding (either in microsomes or in blood) on the relationship between in vitro intrinsic clearance and
(§20) hepatic clearance in vivo has not been accounted for in these studies.
(§21) In Vitro Intrinsic Clearance
(§22) Species (µL/min/mg protein)
(§23) Low Clearance High Clearance
as §3, §4

[5] = In vitro metabolic stability, rat liver microsomes (Monash); type: in vitro ADME
Description: as §5, §6, §7, §8, §9, §10, §11, §12, §13, §14, §15, §16, §17, §18, §19, §20, §21, §22, §23, §3, §4

p38 kinase = test system: p38 kinase; set-up: method as in earlier work; conditions: cited from earlier work
[6] = test system: Escherichia coli ATCC 25922; assay: CO-ADD antibacterial assay, E. coli; type: cell-based
Description: (§24) Hit Confirmation of active compounds by whole cell growth inhibition assays was conducted as an 8-point dose response to determine the Minimum Inhibitory Concentration (MIC), in duplicate (n=2). The inhibition of growth is measured against those microorganisms that […]
(§25) Included in the Hit Confirmation were 5 bacteria: Escherichia coli, Klebsiella pneumoniae, Acinetobacter baumannii, Pseudomonas aeruginosa and Staphylococcus aureus, and 2 fungi Candida albicans and Cryptococcus neoformans. […]
(§26) Assay Parameters Bacteria Fungi HEK293 Haemolysis […]
(§27) Duplicate (n=2) Duplicate (n=2) Duplicate (n=2) Duplicate (n=2)
(§28) QC Control MIC: Control MIC: Control CC50: Control HC10:
(§29) Non-Binding Non-Binding TC, 384-well Polypropylene […]
(§30) All bacteria were cultured in Cation-adjusted Mueller Hinton broth (CAMHB) at 37 °C overnight. […] The resultant mid-log phase cultures were diluted (CFU/mL measured by OD600), then added to each well of the compound containing plates, giving a cell density of 5×10^5 CFU/mL and a total volume of 50 µL. […]
(§31) Inhibition of bacterial growth was determined measuring absorbance at 600 nm (OD600), using a Tecan M1000 Pro monochromator plate reader. The percentage of growth inhibition was calculated for each well, using the negative control (media only) and positive control (bacteria without inhibitors) on the same plate as references. […]

[7] = test system: Klebsiella pneumoniae ATCC 700603; assay: CO-ADD antibacterial assay, K. pneumoniae; type: cell-based
Description: as §24, §25, §26, §27, §28, §29, §30, §31

[8] = test system: Acinetobacter baumannii ATCC 19606; assay: CO-ADD antibacterial assay, A. baumannii; type: cell-based
Description: as §24, §25, §26, §27, §28, §29, §30, §31

[9] = test system: Pseudomonas aeruginosa ATCC 27853; assay: CO-ADD antibacterial assay, P. aeruginosa; type: cell-based
Description: as §24, §25, §26, §27, §28, §29, §30, §31

[10] = Mouse liver microsome (MLM) metabolic stability (UNC); type: in vitro ADME
From the text: Supplement id3c00286_si_002.xlsx, sheet "Series 2 Data" | column: MLM Clint (mL/min/kg) (UNC); MLM t1/2 (min) (UNC); MLM E (UNC)

[11] = Rat liver microsome (RLM) metabolic stability (UNC); type: in vitro ADME; conditions: rat liver microsomes
From the text: Supplement id3c00286_si_002.xlsx, sheet "Series 2 Data" | column: RLM Clint (mL/min/kg) (UNC); RLM t1/2 (min) (UNC); RLM E (UNC)

[12] = test system: Enterococcus faecalis ATCC 51299 (vanA-positive; vancomycin-resistant); assay: In vitro antibacterial activity, MIC (UCL), VRE; type: cell-based; conditions: read-out: VRE MIC (UCL)
Method in brief: as §1

Aqueous solubility = type: physicochemical; conditions: thermodynamic from solid; NEU; read-out: Aqueous Solubility (NEU)
LogD7.4 (Chrom Log D) = type: physicochemical; conditions: chromatographic system (Chrom Log D); pH 7.4, NEU; read-out: LogD 7.4 (NEU)
[13] = Human plasma protein binding (PPB); type: in vitro ADME; conditions: human, plasma, human plasma, NEU; read-out: Human PPB (NEU) (converted)
[14] = Human liver microsome intrinsic clearance; type: in vitro ADME; conditions: human liver microsomes, NEU; read-out: HLM CLint (NEU)
[15] = Rat hepatocyte intrinsic clearance; type: in vitro ADME; conditions: rat hepatocytes, NEU; read-out: Rat Hep CLint (NEU)
[16] = test system: MRC-5SV2 (human lung fibroblast cell line); assay: Toxicity against MRC-5SV2; type: cell-based; conditions: MRC5 cells
Description: (§32) ADME and toxicity for compounds were measured according to procedures outlined in the manuscript submitted in parallel to this one;2 other procedures were used for those compounds analysed by Monash University (in vitro ADME) or UCL (toxicity), both described in the main

[17] = test system: PMM (primary mouse macrophages); assay: Toxicity against PMM; type: cell-based; conditions: PMM
Description: as §32

U2OS = assay: Toxicity against U2OS; type: cell-based; conditions: U2OS cells
From the text: Supplement id3c00286_si_002.xlsx, sheet "Series 2 Data" | column: U2OS TC50 (uM)

THP1 = assay: Toxicity against THP1; type: cell-based; conditions: THP1 cells
From the text: Supplement id3c00286_si_002.xlsx, sheet "Series 2 Data" | column: THP1 TC50 (uM)

[18] = NADPH, read-out: CLint, in vitro

MIC ([1]; 16 h, read-out: MRSA MIC): > 32 µg/mL
MIC ([1]; read-out: MRSA MIC): 32 µg/mL (≈ 105 µM)
Sol 6.5 ([2]; pH 6.5 phosphate buffer): 50 to 100 µg/mL
gLogD at pH 7.4 [3]: 1.5
microsomal CLint at 1 µM [4, 18]: 28 µL/min/mg
half-life at 1 µM ([4]; NADPH, read-out: T1/2): 62 min
microsomal CLint at 1 µM [5, 18]: 59 µL/min/mg
half-life at 1 µM ([5]; NADPH, read-out: T1/2): 29 min
Compound: c1ccc(-c2nc3n(c2-c2ccc4c(c2)OCO4)CCC3)nc1 [compound 812]
activity against MRSA, in words [1]: MRSA-inactive
inhibition of p38 kinase (p38 kinase): no inhibition

Compound: Colistin - Sulfate
MIC Escherichia coli [6]: 0.125 µg/mL
MIC Klebsiella [7]: 0.25 µg/mL
MIC Acinetobacter baumannii [8]: 0.25 µg/mL
MIC Pseudomonas aeruginosa [9]: 0.25 µg/mL

MIC ([1]; UCL, read-out: MRSA MIC (UCL)): 32 µg/mL (≈ 105 µM)
solubility kinetic at 30 min ([2]; 0.01 M HCl, simulated gastric fluid, pH 2.0, read-out: Sol (pH 2.0) (Monash)): > 100 µg/mL
solubility kinetic at 30 min ([2]; pH 6.5 phosphate buffer, pH 6.5, aqueous buffer, read-out: Sol (pH 6.5) (Monash)): 50 to 100 µg/mL (≈ 164 to 328 µM)
chromatographic logD ([3]; gradient HPLC retention against standard compounds, pH 7.4): 1.5
HLM Clint (Monash) ([4]; Monash): 28 µL/min/mg
HLM t1/2 (Monash) ([4]; Monash): 62 min
RLM Clint (Monash) ([5]; Monash): 59 µL/min/mg
RLM t1/2 (Monash) ([5]; Monash): 29 min
MLM Clint (UNC) ([10]; mouse liver microsomes): 677 mL/min/kg
MLM E (UNC) ([10]; mouse liver microsomes): 0.864 and 0.883
MLM t1/2 (UNC) ([10]; mouse liver microsomes): 8.3 min
CLint scaled ([10]; mouse, liver microsomes): 569 mL/min/kg
half-life ([10]; mouse, liver microsomes, read-out: MLM t1/2 (UNC)): 9.87 min
CLint scaled [11]: 142 mL/min/kg
RLM E (UNC) [11]: 0.669
half-life ([11]; read-out: RLM t1/2 (UNC)): 17.7 min
Compound: c1ccc(-c2nc3n(c2-c2ccc4c(c2)OCO4)CCC3)nc1 [OSA_000812]

MIC ([1]; UCL, read-out: MRSA MIC (UCL)): 16 µg/mL (≈ 50.1 µM)
MIC [12]: > 32 µg/mL
solubility (Aqueous solubility): 85 µM (≈ 27.1 µg/mL)
chromatographic logD (LogD7.4 (Chrom Log D)): 2.9
fraction unbound [13]: 0.054
microsomal CLint [14]: > 300 µL/min/mg
hepatocyte CLint [15]: 25.1 µL/min/1e6 cells
Compound: COc1ccn2c(-c3ccc(F)cc3)c(-c3ccccn3)nc2c1 [OSA_000858]
MRC5 TC50 [16]: 3.62 µM
PMM TC50 [17]: 8 µM
U2OS TC50 (U2OS): 1.28 µM
THP1 TC50 (THP1): 7.63 µM
